Test results published in US20240368230A1, “CELL-PENETRATING PEPTIDES COMPRISING MULTIPLE 5-MER ALPHA-HELIX FRAGMENTS AND USES THEREOF” (ArtProBio Co., Ltd., priority 2023, published 2024).
Where a SMILES comes first, the peptide text is derived from it. Where no end group is shown, it is not given here. [ ]: non-standard residue; d: D form. Aib = CC(C)(N)C(=O)O

How the values were obtained:
BALB/c nude mice = assay: In-vivo fluorescence imaging (IVIS) of living mice, targeting; conditions: FAM-labeled, IV 5 mg/kg, 4 hours; for in-vivo targeting site: 200 μL; for bioaccumulation / targeting activity in the body: comparison with existing CPPs
Method: All animal experimental procedures including sample administration and euthanasia were performed in accordance with the strict guidelines of the Yonsei University Health System Institutional Animal Care and Use Committee. Female 7-week BALB/c nude mice were purchased from Orient Bio Company (Korea). Fluorescence-labeled peptide (sample) (10 mg/kg) was injected via the lateral tail vein of the mice. Fluorescence images were acquired at different times (0, 4, 8 and 12 hours) using an in-vivo imaging system (IVIS; PerkinElmer, USA) and the images were analyzed with the Living Image software (PerkinElmer).
Female 7-week-old BALB/c nude mice were injected IV (intravenously) with the cell-penetrating peptide prepared in Example 10 (CPP10) at 10 mg/kg or 1 mg/kg via the lateral tail vein and imaged using IVIS (in-vivo imaging system) (PerkinElmer, USA) 4 hours later. The images were analyzed with the Living Image software (PerkinElmer). The mice were analyzed from the top, bottom (belly) and side positions (FIG. 44A). Then, after administering the same volume of the cell-penetrating peptide prepared in Example 10 (CPP10) at 10 mg/kg via IV (intravenous) or IP (intraperitoneal) injection, the mice were imaged 4 hours later (FIG. 44B).
Next, female 7-week-old BALB/c nude mice were injected IV (intravenously) with the cell-penetrating peptide of Example 10 (CPP10), the cell-penetrating peptide of Example 11 (CPP11) or the cell-penetrating peptide of Example 14 (CPP11d) at 10 mg/kg via the lateral tail vein, and they were imaged 30 minutes and 6 hours later using IVIS (in-vivo imaging system) (PerkinElmer, USA). The images were analyzed with the Living Image software (PerkinElmer) (FIG. 44C). In FIGS. 44A and 44B, the cell-penetrating peptides were labeled with TAMRA (5 (6)-carboxytetramethylrhodamine). In FIG. 44C, the cell-penetrating peptides were labeled with FAM.
The images were analyzed with the Living Image software (PerkinElmer) (FIGS. 50 and 51).
The cell-penetrating peptide prepared in Example 11 (CPP11) was also administered at the same concentration and then analyzed by IVIS 1 hour later (FIG. 51). The cell-penetrating peptide was used after labeling with FAM.
4 hours later, the mice were imaged using IVIS (in-vivo imaging system) (PerkinElmer, USA) and the images were analyzed with the Living Image software (PerkinElmer) (FIG. 53).
The cell-penetrating peptide prepared in Example 11 (CPP11) was also administered at the same concentration and then analyzed by IVIS 1 hour later (FIG. 53). The cell-penetrating peptide was used after labeling with FAM.
Female 7-week-old BALB/c nude mice were injected IV (intravenously) with 200 μL of the cell-penetrating peptide of Example 11 (CPP11) or the existing cell-penetrating peptides (Rev ARM, Tat, penetratin and R8) at 5 mg/kg via the lateral tail vein. 4 hours later, the mice were imaged using IVIS (in-vivo imaging system) (PerkinElmer, USA) and the images were analyzed with the Living Image software (PerkinElmer) (FIGS. 54 and 55). The cell-penetrating peptides were used after labeling with FAM.

[1] = CD spectroscopy of cell-penetrating peptides (helicity); conditions: for helicity ([θ]222/[θ]208): CD spectra; for secondary structure / helix stabilization by CD: 10 mM potassium phosphate, pH 7.4, 20° C.
Method: The concentration of peptides/proteins was 5-20 μM in general. Spectra were obtained using a Jasco J-1500 CD spectrometer (JASCO, Japan) or a Chirascan CD spectrometer (Applied Photophysics, UK). Scanning was carried out using a cuvette with a path length of 1 mm. MRE (mean residue ellipticity) was calculated per amino acid residue.
The cell-penetrating peptides (CPP1 TO 13 and CPP11d) were dissolved respectively in 10 mM potassium phosphate. The analysis was performed under the condition of pH 7.4 and 20° C.

In the case of C[C@H](NC(=O)[C@H](CCC(N)=O)NC(=O)C(C)(C)NC(=O)CNC(=O)C(C)(C)NC(=O)[C@H](CC(N)=O)NC(=O)[C@H](CCCNC(=N)N)NC(=O)[C@H](CCCNC(=N)N)NC(=O)[C@H](C)NC(=O)[C@H](CCC(N)=O)NC(=O)C(C)(C)NC(=O)CNC(=O)C(C)(C)NC(=O)[C@H](CC(N)=O)NC(=O)[C@H](CCCNC(=N)N)NC(=O)[C@H](CCCNC(=N)N)NC(=O)[C@H](C)NC(=O)[C@H](CCC(N)=O)NC(=O)C(C)(C)NC(=O)[C@H](C)NC(=O)C(C)(C)N)C(=O)N[C@@H](CCCNC(=N)N)C(=O)N[C@@H](CCCNC(=N)N)C(=O)N[C@@H](CC(N)=O)C(=O)NC(C)(C)C(=O)NCC(=O)NC(C)(C)C(=O)N[C@@H](CCC(N)=O)C(=O)N[C@@H](C)C(=O)N[C@@H](CCCNC(=N)N)C(=O)N[C@@H](CCCNC(=N)N)C(=O)N[C@@H](CC(N)=O)C(=O)NC(C)(C)C(=O)N[C@@H](C)C(=O)NC(C)(C)C(N)=O [CPP21] (HELM PEPTIDE1{[Aib].A.[Aib].Q.A.R.R.N.[Aib].G.[Aib].Q.A.R.R.N.[Aib].G.[Aib].Q.A.R.R.N.[Aib].G.[Aib].Q.A.R.R.N.[Aib].A.[Aib].[am]}$$$$V2.0; N-terminus assumed), the in-vivo targeting site (BALB/c nude mice) is reported as “target the ear” and the “helicity ([θ]222/[θ]208)” value ([1]; listed as Example 22) is reported as 0.500.

For “UAUQRARNUAUQRARNUAUQRARNUAUQRARNUAU ([Aib]A[Aib]QRARN[Aib]A[Aib]QRARN[Aib]A[Aib]QRARN[Aib]A[Aib]QRARN[Aib]A[Aib]-NH2; not fully specified) [CPP14]”, the “helicity ([θ]222/[θ]208)” value [1] was 0.81.

For “UAUQARRNUAUQARRNUAUQARRNUAUQARRNUAUQARRNUAU ([Aib]A[Aib]QARRN[Aib]A[Aib]QARRN[Aib]A[Aib]QARRN[Aib]A[Aib]QARRN[Aib]A[Aib]QARRN[Aib]A[Aib]; not fully specified) [CPP13]”, the “secondary structure / helix stabilization by CD” value [1] was “not further increased”.

With C[C@H](NC(=O)[C@H](CCC(N)=O)NC(=O)C(C)(C)NC(=O)CNC(=O)C(C)(C)NC(=O)[C@H](CC(N)=O)NC(=O)[C@H](CCCNC(=N)N)NC(=O)[C@H](CCCNC(=N)N)NC(=O)[C@H](C)NC(=O)[C@H](CCC(N)=O)NC(=O)C(C)(C)NC(=O)[C@H](C)NC(=O)C(C)(C)NC(=O)[C@H](CC(N)=O)NC(=O)[C@H](CCCNC(=N)N)NC(=O)[C@H](CCCNC(=N)N)NC(=O)[C@H](C)NC(=O)[C@H](CCC(N)=O)NC(=O)C(C)(C)NC(=O)[C@H](C)NC(=O)C(C)(C)N)C(=O)N[C@@H](CCCNC(=N)N)C(=O)N[C@@H](CCCNC(=N)N)C(=O)N[C@@H](CC(N)=O)C(=O)NC(C)(C)C(=O)NCC(=O)NC(C)(C)C(=O)N[C@@H](CCC(N)=O)C(=O)N[C@@H](C)C(=O)N[C@@H](CCCNC(=N)N)C(=O)N[C@@H](CCCNC(=N)N)C(=O)N[C@@H](CC(N)=O)C(=O)NC(C)(C)C(=O)N[C@@H](C)C(=O)NC(C)(C)C(N)=O [CPP20] (HELM PEPTIDE1{[Aib].A.[Aib].Q.A.R.R.N.[Aib].A.[Aib].Q.A.R.R.N.[Aib].G.[Aib].Q.A.R.R.N.[Aib].G.[Aib].Q.A.R.R.N.[Aib].A.[Aib].[am]}$$$$V2.0; N-terminus assumed) the in-vivo targeting site (BALB/c nude mice) was “target the ear”, the “accumulation efficiency in the ear” value (BALB/c nude mice; among CPP19 to 21) was “much superior accumulation efficiency in the ear” and the “helicity ([θ]222/[θ]208)” value ([1]; listed as Example 21) was 0.565.

In the case of QARRNQARRNQARRNQARRN [CPP6], the “secondary structure / helix stabilization by CD” value [1] is reported as “mostly in random coil state”.

In the case of QARRNQARRNQARRNQARRNQARRN [CPP7], the “secondary structure / helix stabilization by CD” value [1] is reported as “mostly in random coil state”.

For “AUAUARQARRNRQARRNRQARRNAUAUA (A[Aib]A[Aib]ARQARRNRQARRNRQARRNA[Aib]A[Aib]A; not fully specified (C-terminus)) [CPP4]”, the “secondary structure / helix stabilization by CD” value [1] was “helical structure was somewhat stabilized”.

With “TRQARRNRRRRWRERQR [Rev ARM, reference compound]” the bioaccumulation (BALB/c nude mice) was “did not show significant bioaccumulation” and the “targeting activity in the body” value (BALB/c nude mice) was “did not show targeting activity for specific sites in the body”.

In the case of RRRRRRRR [R8, reference compound], the bioaccumulation (BALB/c nude mice) is reported as “did not show significant bioaccumulation” and the “targeting activity in the body” value (BALB/c nude mice) is reported as “did not show targeting activity for specific sites in the body”.

In the case of C[C@H](NC(=O)[C@H](CCC(N)=O)NC(=O)C(C)(C)NC(=O)CNC(=O)C(C)(C)NC(=O)[C@H](CC(N)=O)NC(=O)[C@H](CCCNC(=N)N)NC(=O)[C@H](CCCNC(=N)N)NC(=O)[C@H](C)NC(=O)[C@H](CCC(N)=O)NC(=O)C(C)(C)NC(=O)[C@H](C)NC(=O)C(C)(C)NC(=O)[C@H](CC(N)=O)NC(=O)[C@H](CCCNC(=N)N)NC(=O)[C@H](CCCNC(=N)N)NC(=O)[C@H](C)NC(=O)[C@H](CCC(N)=O)NC(=O)C(C)(C)NC(=O)[C@H](C)NC(=O)C(C)(C)NC(=O)[C@H](CC(N)=O)NC(=O)[C@H](CCCNC(=N)N)NC(=O)[C@H](CCCNC(=N)N)NC(=O)[C@H](C)NC(=O)[C@H](CCC(N)=O)NC(=O)C(C)(C)NC(=O)[C@H](C)NC(=O)C(C)(C)N)C(=O)N[C@@H](CCCNC(=N)N)C(=O)N[C@@H](CCCNC(=N)N)C(=O)N[C@@H](CC(N)=O)C(=O)NC(C)(C)C(=O)N[C@@H](C)C(=O)NC(C)(C)C(N)=O [CPP19] (HELM PEPTIDE1{[Aib].A.[Aib].Q.A.R.R.N.[Aib].A.[Aib].Q.A.R.R.N.[Aib].A.[Aib].Q.A.R.R.N.[Aib].G.[Aib].Q.A.R.R.N.[Aib].A.[Aib].[am]}$$$$V2.0; N-terminus assumed), the in-vivo targeting site (BALB/c nude mice) is reported as “target the ear”, the “helicity ([θ]222/[θ]208)” value [1] is reported as no less than 0.7 and the “helicity ([θ]222/[θ]208)” value ([1]; listed as Example 20) is reported as 0.706.

With “UAUQRRANUAUQRRANUAUQRRANUAUQRRANUAU ([Aib]A[Aib]QRRAN[Aib]A[Aib]QRRAN[Aib]A[Aib]QRRAN[Aib]A[Aib]QRRAN[Aib]A[Aib]-NH2; not fully specified) [CPP15]” the “helicity ([θ]222/[θ]208)” value [1] was 0.66.

For N=C(N)NCCC[C@H](NC(=O)[C@H](CCCNC(=N)N)NC(=O)[C@H](CCCNC(=N)N)NC(=O)[C@H](CCC(N)=O)NC(=O)[C@H](CCCNC(=N)N)NC(=O)[C@H](CCCNC(=N)N)NC(=O)[C@H](CCCCN)NC(=O)[C@H](CCCCN)NC(=O)[C@H](CCCNC(=N)N)NC(=O)CNC(=O)[C@@H](N)Cc1ccc(O)cc1)C(N)=O [Tat, Tyr-Gly-Arg-Lys-Lys-Arg-Arg-Gln-Arg-Arg-Arg, reference compound], the bioaccumulation (BALB/c nude mice) was “did not show significant bioaccumulation” and the “targeting activity in the body” value (BALB/c nude mice) was “did not show targeting activity for specific sites in the body”.

In the case of “UAURQARRNUAURQARRNUAURQARRNUAURQARRNUAU ([Aib]A[Aib]RQARRN[Aib]A[Aib]RQARRN[Aib]A[Aib]RQARRN[Aib]A[Aib]RQARRN[Aib]A[Aib]; not fully specified (C-terminus)) [CPP5]”, the “secondary structure / helix stabilization by CD” value [1] is reported as “helical structure was somewhat stabilized”.

With “UAUNRRAQUAUNRRAQUAUNRRAQUAUNRRAQUAU ([Aib]A[Aib]NRRAQ[Aib]A[Aib]NRRAQ[Aib]A[Aib]NRRAQ[Aib]A[Aib]NRRAQ[Aib]A[Aib]-NH2) [CPP16]” the “helicity ([θ]222/[θ]208)” value [1] was 0.66.

For “UAUNRARQUAUNRARQUAUNRARQUAUNRARQUAU ([Aib]A[Aib]NRARQ[Aib]A[Aib]NRARQ[Aib]A[Aib]NRARQ[Aib]A[Aib]NRARQ[Aib]A[Aib]-NH2) [CPP17]”, the “helicity ([θ]222/[θ]208)” value [1] was 0.78.

For “UAUNARRQUAUNARRQUAUNARRQUAUNARRQUAU ([Aib]A[Aib]NARRQ[Aib]A[Aib]NARRQ[Aib]A[Aib]NARRQ[Aib]A[Aib]NARRQ[Aib]A[Aib]-NH2) [CPP18]”, the “helicity ([θ]222/[θ]208)” value [1] was 0.72.
